Activity calls are given as the source filed them.
What was measured:
[1] = target: Glycogen synthase kinase-3 beta (Homo sapiens, UniProt P49841); test: inhibition of human GSK3B activity – biochemical, microfluidics, dry powder samples, set 2, dose response (AID 623989); type: functional
[2] = target: Glycogen synthase kinase-3 alpha (Homo sapiens, UniProt P49840); test: GSK3A enzyme blockers, homolog specificity check – biochemical, microfluidics, dry powder samples, set 2, selectivity assay for GSK3beta inhibitor project, dose response (AID 623978); type: functional
Sequence of Glycogen synthase kinase-3 alpha (P49840 whole entry): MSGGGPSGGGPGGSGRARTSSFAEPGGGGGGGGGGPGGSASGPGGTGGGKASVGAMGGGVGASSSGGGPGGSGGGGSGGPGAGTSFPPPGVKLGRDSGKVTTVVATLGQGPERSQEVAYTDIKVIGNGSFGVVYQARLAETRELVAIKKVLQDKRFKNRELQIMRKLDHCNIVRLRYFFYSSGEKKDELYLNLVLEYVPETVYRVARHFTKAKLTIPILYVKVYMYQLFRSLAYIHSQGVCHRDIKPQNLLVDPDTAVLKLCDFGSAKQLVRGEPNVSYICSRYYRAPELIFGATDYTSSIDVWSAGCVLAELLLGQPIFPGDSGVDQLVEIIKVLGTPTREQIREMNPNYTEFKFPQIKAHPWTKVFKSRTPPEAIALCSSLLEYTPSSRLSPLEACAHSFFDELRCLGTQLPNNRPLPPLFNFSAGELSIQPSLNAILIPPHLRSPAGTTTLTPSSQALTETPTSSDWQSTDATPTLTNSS

[3] = target: T1, Delta-type opioid receptor (Homo sapiens, UniProt P41143); test: HTS Image-Based Screen for Antagonists of the DOR Receptor. [Related pubchem assays (depositor defined):AID1777, AID1785, AID1786, AID2133]; type: functional
T1 sequence (P41143 whole entry): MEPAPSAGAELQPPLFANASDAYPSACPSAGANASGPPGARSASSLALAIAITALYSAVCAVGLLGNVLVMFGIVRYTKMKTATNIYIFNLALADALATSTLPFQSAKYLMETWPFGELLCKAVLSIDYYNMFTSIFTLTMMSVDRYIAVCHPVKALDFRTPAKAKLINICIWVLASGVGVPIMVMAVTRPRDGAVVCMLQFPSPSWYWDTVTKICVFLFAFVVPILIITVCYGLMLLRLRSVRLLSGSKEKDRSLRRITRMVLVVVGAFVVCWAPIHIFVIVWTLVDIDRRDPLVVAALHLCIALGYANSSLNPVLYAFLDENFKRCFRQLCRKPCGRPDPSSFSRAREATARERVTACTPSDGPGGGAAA

[4] = target: T2, Polyadenylate-binding protein 1 (Homo sapiens, UniProt P11940); test: MLLE binding blockers, Cy5 peptide tracer – biochemical, fluorescence polarization, Cy5-PAM2 peptide, secondary, miRNA deadenylation inhibitor project, dose response (AID 602260); type: functional; conditions: read-out: IC50_Mean
T2 sequence (P11940 whole entry): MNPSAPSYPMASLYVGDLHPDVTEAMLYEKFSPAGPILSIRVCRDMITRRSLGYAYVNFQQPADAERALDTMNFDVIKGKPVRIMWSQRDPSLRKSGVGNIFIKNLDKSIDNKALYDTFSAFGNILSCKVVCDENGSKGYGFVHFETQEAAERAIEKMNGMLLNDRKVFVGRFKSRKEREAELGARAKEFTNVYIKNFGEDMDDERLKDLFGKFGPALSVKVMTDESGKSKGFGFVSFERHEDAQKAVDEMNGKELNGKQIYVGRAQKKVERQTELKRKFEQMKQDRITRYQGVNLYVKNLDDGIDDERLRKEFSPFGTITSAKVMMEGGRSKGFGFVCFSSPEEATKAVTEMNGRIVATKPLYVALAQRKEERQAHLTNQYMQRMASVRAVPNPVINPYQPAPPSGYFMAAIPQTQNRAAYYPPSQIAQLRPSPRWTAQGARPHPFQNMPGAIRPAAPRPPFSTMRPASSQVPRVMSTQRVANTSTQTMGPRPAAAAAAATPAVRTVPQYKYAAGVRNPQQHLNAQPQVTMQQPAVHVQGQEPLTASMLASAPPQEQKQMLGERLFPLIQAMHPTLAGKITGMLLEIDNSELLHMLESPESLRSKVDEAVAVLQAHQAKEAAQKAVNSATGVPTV

Beta-galactosidase [5] = target: T3, Beta-galactosidase (Escherichia coli, UniProt Q8VNN2); type: functional
T3 sequence (Q8VNN2 whole entry): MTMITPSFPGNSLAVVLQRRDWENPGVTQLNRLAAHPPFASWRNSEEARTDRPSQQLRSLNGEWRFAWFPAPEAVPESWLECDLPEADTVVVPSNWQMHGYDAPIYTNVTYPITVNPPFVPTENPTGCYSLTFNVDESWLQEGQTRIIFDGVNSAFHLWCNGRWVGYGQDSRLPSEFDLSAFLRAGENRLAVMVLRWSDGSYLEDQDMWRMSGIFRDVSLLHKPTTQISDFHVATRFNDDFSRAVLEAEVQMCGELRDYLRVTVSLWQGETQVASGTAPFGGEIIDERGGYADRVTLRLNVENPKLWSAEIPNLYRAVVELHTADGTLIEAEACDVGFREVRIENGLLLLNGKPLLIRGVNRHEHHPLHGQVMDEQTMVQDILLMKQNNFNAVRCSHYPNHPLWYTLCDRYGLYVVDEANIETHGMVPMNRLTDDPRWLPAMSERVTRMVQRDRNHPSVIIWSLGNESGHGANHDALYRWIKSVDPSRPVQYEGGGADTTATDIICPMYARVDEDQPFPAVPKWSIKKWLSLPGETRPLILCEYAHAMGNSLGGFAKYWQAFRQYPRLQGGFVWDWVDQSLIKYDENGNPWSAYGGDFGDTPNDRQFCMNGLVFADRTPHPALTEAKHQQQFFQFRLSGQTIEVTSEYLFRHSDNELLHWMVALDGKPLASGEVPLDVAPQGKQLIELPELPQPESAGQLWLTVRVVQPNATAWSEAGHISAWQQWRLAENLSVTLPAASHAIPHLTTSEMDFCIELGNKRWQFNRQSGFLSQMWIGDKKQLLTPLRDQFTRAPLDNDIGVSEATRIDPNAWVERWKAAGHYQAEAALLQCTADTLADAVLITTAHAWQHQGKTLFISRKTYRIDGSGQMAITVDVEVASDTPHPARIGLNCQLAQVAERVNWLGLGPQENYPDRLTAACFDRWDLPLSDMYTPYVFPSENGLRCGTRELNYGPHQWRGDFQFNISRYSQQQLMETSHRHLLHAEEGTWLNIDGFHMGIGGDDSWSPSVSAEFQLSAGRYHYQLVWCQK

BJ [6] = test: cells; type: functional, cell-based; conditions: Homo sapiens
Mu-type opioid receptor = Mu-type opioid receptor (Homo sapiens, UniProt P35372); test: HTS Image-Based Screen for Agonists of the MOR Receptor. [Related pubchem assays (depositor defined):AID1777, AID1785, AID1786, AID2133]; type: functional;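 note: imaging of beta-arrestin GFP recruitment into spots after receptor activation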
[7] = target: T4, Kappa-type opioid receptor (Homo sapiens, UniProt P41145); type: functional
T4 sequence (P41145 whole entry): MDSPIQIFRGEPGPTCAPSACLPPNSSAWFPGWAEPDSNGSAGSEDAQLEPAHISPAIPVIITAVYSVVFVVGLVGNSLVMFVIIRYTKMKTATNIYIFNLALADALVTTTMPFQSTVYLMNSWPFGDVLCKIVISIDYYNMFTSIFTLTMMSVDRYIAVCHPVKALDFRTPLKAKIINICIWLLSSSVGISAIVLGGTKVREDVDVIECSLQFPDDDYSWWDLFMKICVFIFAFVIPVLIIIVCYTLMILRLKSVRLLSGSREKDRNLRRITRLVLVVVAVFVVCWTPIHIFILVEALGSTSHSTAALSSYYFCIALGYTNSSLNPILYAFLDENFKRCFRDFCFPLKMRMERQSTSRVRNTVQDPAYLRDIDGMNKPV

[8] = Luminescence Cell-Based Dose Confirmation HTS to Identify Activators of 5'UTR Stem-Loop Driven Alpha-Synuclein mRNA Translation in H4 Neuroglioblastoma Cells. [Related pubchem assays: 1829 (Project Summary), 1814 (Primary HTS)]; type: functional
Beta-galactosidase [9] = target: T3, Beta-galactosidase; test: PubChem AID 485352; type: functional
Vero [10] = test: cells; type: functional, cell-based; conditions: Chlorocebus sabaeus
H4 = test: Luminescence Cell-Based Dose Response HTS to Identify Activators of 5'UTR Stem-Loop Driven Prion Protein mRNA Translation in H4 Neuroglioblastoma Cells. [Related pubchem assays: 1829 (Project Summary), 1814 (Primary HTS)]; type: functional; conditions: Homo sapiens
BJ [11] = test: growth inhibition of engineered Ras-driven BJ cells – cell-based, alamar blue fluorescence, cherrypicked samples, dose response (AID 2631); type: functional; conditions: Homo sapiens;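 note: confirmatory dose-response assay in RAS-dependent BJ fibroblasts engineered with TERT, LT and ST, with cytotoxicity read by fluorescence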
[12] = target: 72 kDa type IV collagenase (Homo sapiens, UniProt P08253); test: Dose Response validation of uHTS RPN11 inhibitor hits using a MMP-2 Fluorescence assay.; type: functional
[13] = target: 26S proteasome non-ATPase regulatory subunit 14 (Homo sapiens, UniProt O00487); test: inhibition of proteasome subunit RPN11 – biochemical, fluorescence polarization, uHTS hits, confirmation (AID 602368); type: functional
Vero [14] = test: cells; type: functional; conditions: Chlorocebus sabaeus
BJ [15] = test: BJ-TERT-LT-ST fibroblast viability loss – cell-based, RAS-independent, luminescence, dose response (AID 1935); type: functional; conditions: Homo sapiens;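 note: BJ fibroblasts immortalized with TERT plus LT and ST oncogenes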
[16] = target: T1, Delta-type opioid receptor; test: HTS Image-Based Screen for Agonists of the DOR Receptor. [Related pubchem assays (depositor defined):AID1777, AID1786, AID2133]; type: functional
[17] = target: Type-1 angiotensin II receptor (Homo sapiens, UniProt P30556); test: antagonism of angiotensin II type 1 receptor – cell-based, uHTS hits, selectivity assay for APJ receptor antagonist project, dose response (AID 463214); type: functional;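 note: antagonist potency against angiotensin II stimulated AT1 response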
[18] = Luminescence Cell-Based Dose Response HTS to Identify Activators of Luciferase Translation or Activity in H4 […] Cells. [Related pubchem assays: 1829 (Project Summary), 1814 (Primary HTS)]; type: functional
[19] = target: T2, Polyadenylate-binding protein 1; test: MLLE domain peptide-binding blockers, IC50 – biochemical, fluorescence polarization, FITC-PAM2 peptide, dose response (AID 602259); type: functional; conditions: read-out: IC50_Mean
[20] = DRD fibroblast viability loss – cell-based, non-viral oncogenic, luminescence, dose response (AID 1934); type: functional; conditions: Homo sapiens
[21] = reduction of Shn3 3'UTR-driven luciferase in osteoblasts – cell-based, Clone20 osteoblasts, firefly luciferase, cherry-picked, dose response (AID 624132); type: functional;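 note: firefly luciferase luminescence from reporter carrying the Shn3 3'UTR in osteoblasts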
[22] = NIH-3T3 fibroblast cytotoxicity, dose response, cytotoxicity control, cell-based, fluorescence, Alamar Blue, secondary assay (AID 2327); type: functional;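 note: NIH-3T3 mouse fibroblasts cultured with fluconazole at 8 µg/mL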
[23] = non-specific 3'UTR reporter inhibition in Clone20-Shn3RL – cell-based, Renilla luciferase, cherry-picked, counter-screen for Shn3 inhibitor project, dose response (AID 624133); type: functional
BJ [24] = test: BJ-TERT fibroblast viability loss – cell-based, RAS-independent, luminescence, dose response (AID 1933); type: functional; conditions: Homo sapiens
[25] = Luminescence-based dose response cell-based high throughput screening assay for cytotoxic compounds using the IEC-6 intestinal epithelial cell line. [Related pubchem assays: 1858 (Summary AID.), 1825 (Counterscreen.), 1907 (Confirmation screen.)]; type: functional
[26] = HEK-293T viability loss after treatment – luminescence, T-cell screen hits, cytotoxicity control for TCR NF-kB inhibitor project, dose response (AID 489026); type: functional, cell-based;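 note: cells exposed to compound about 14 hours before the viability readout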
Prothrombin = Prothrombin (Bos taurus, UniProt P00735); test: thrombin protease inhibitors – biochemical, fluorescence polarization, uHTS hits, dose response (AID 602369); type: functional
[27] = target: T4, Kappa-type opioid receptor; type: functional; remark: listed apart in the source
[28] = target: Multidrug resistance protein CDR2 (Candida albicans (strain SC5314 / ATCC MYA-2876) (Yeast), UniProt P78595); test: inhibition of Nile Red efflux via Candida CDR2 – S. cerevisiae AD1-8u, singleplex, Cherry Pick1 hits, dose response (AID 588604); type: functional
[29] = target: T5, Apoptotic protease-activating factor 1 (Homo sapiens, UniProt O14727); test: SAR analysis of small molecule Activators of Apaf-1 in a Fluorescent assay - set 2.; type: functional; conditions: read-out: EC50_Mean
T5 sequence (O14727 whole entry): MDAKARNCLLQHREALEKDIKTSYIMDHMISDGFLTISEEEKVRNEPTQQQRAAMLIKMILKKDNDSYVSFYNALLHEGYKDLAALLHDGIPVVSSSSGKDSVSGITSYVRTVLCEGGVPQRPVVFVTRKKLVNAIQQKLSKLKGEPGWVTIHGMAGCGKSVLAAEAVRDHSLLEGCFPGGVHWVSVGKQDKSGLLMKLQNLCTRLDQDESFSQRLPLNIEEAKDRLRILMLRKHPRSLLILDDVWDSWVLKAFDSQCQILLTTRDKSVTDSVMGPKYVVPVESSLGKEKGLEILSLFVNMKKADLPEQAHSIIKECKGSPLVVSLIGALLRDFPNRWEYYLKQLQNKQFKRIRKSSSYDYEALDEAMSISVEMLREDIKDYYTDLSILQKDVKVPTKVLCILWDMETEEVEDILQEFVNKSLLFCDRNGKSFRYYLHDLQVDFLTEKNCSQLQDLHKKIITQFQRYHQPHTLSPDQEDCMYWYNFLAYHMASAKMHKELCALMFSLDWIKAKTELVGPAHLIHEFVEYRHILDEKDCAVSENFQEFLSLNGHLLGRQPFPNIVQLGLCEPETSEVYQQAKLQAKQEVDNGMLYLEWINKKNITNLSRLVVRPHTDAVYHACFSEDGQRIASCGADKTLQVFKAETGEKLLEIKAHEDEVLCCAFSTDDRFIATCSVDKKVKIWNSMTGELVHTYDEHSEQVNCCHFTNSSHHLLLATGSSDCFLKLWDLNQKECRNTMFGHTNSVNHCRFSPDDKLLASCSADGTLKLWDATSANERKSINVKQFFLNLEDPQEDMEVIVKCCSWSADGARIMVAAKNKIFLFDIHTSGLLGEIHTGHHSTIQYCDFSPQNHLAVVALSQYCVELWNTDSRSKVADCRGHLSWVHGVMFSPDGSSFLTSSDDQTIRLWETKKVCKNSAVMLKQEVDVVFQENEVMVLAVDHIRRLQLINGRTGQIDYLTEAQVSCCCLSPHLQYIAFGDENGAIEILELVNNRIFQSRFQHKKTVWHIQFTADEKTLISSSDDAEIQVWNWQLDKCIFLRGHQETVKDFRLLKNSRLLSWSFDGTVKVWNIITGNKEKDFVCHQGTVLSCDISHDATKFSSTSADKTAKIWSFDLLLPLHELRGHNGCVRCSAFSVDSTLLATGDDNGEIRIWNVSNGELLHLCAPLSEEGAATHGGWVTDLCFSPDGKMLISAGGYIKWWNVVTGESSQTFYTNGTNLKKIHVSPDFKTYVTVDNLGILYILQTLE

[30] = SAR analysis of small molecule activators of Apaf-1 using a LZ-Caspase-9/Caspase-3 Fluorescent Selectivity assay - Set 2.; type: functional; conditions: read-out: EC50_Mean
[31] = target: Dual specificity protein kinase CLK4 (Homo sapiens, UniProt Q9HAZ1); type: functional
[32] = target: Casein kinase I isoform delta (Homo sapiens, UniProt P48730); type: functional;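 note: measured as one member (CSNK1D) of a kinome panel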
Sequence of Casein kinase I isoform delta (P48730 whole entry, canonical isoform): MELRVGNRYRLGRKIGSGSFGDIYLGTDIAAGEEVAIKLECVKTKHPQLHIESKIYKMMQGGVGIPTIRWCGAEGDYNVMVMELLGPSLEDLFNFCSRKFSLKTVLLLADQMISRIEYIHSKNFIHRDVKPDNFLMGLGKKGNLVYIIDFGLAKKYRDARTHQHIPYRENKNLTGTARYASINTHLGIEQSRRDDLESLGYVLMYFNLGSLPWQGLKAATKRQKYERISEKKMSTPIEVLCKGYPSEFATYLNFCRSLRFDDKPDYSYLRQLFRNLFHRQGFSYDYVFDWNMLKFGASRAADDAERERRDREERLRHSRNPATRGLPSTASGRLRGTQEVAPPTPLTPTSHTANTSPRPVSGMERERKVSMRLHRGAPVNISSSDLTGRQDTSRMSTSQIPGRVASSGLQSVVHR

[33] = target: Casein kinase II subunit alpha (Homo sapiens, UniProt P68400); type: functional
[34] = target: Dual specificity tyrosine-phosphorylation-regulated kinase 1A (Homo sapiens, UniProt Q13627); type: functional;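 note: measured against DYRK1A as one member of a broad kinome profiling panel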
[35] = target: Mitogen-activated protein kinase kinase kinase kinase 4 (Homo sapiens, UniProt O95819); type: functional
[36] = target: Serine/threonine-protein kinase pim-3 (Homo sapiens, UniProt Q86V86); type: functional;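 note: value obtained as one member of a broad kinase panel profiling effort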
[37] = target: Serine/threonine-protein kinase pim-1 (Homo sapiens, UniProt P11309); type: functional
Sequence of Serine/threonine-protein kinase pim-1 (P11309 whole entry): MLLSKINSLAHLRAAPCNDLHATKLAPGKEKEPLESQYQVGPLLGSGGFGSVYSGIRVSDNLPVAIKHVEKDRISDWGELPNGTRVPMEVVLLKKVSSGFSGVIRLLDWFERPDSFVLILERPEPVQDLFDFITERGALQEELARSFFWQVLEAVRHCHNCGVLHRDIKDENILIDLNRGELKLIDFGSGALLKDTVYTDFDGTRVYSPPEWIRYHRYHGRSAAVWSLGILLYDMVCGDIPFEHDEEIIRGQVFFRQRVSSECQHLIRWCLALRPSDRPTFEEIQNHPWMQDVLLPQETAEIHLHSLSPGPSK

[38] = target: DNA dC->dU-editing enzyme APOBEC-3G (Homo sapiens, UniProt Q9HC16); test: SAR analysis of small molecule inhibitors of APOBEC3G DNA Deaminase via a fluorescence-based single-stranded DNA deaminase assay - Set 2.; type: functional; conditions: read-out: IC50_Mean
[39] = target: DNA dC->dU-editing enzyme APOBEC-3A (Homo sapiens, UniProt P31941); test: SAR analysis of small molecule inhibitors of APOBEC3A DNA Deaminase via a fluorescence-based single-stranded DNA deaminase assay - Set 2.; type: functional; conditions: read-out: IC50_Mean
Sequence of DNA dC->dU-editing enzyme APOBEC-3A (P31941 whole entry): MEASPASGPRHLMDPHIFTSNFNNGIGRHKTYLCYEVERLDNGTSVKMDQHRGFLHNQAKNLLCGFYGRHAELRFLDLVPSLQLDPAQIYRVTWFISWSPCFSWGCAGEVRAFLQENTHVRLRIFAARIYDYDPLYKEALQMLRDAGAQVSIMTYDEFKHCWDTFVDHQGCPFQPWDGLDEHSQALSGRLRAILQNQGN

[40] = target: Melanin-concentrating hormone receptor 1 (Homo sapiens, UniProt Q99705); test: Late-stage fluorescence-based counterscreen for antagonists of the G-protein coupled receptor 7 (GPR7): cell-based dose response assay to identify antagonists of the melanin-concentrating hormone receptor 1 (MCHR1) Set 6.; type: functional
Sequence of Melanin-concentrating hormone receptor 1 (Q99705 whole entry): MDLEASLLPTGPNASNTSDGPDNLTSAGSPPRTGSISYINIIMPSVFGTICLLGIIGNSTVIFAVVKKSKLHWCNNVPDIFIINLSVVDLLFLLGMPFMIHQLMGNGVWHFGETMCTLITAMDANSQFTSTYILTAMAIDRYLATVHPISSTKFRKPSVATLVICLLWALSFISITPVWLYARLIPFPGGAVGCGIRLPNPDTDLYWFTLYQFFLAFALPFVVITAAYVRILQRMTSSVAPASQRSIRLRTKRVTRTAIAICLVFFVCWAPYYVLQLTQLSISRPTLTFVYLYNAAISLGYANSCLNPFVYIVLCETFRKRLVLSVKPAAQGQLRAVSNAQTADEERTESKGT

[41] = target: T6, Neuropeptides B/W receptor type 1 (Homo sapiens, UniProt P48145); test: human NPBW1 receptor blockade, IC50 – cell-based, fluorescence, dose response, set 6, late-stage follow-up (AID 588583); type: functional
T6 sequence (P48145 whole entry): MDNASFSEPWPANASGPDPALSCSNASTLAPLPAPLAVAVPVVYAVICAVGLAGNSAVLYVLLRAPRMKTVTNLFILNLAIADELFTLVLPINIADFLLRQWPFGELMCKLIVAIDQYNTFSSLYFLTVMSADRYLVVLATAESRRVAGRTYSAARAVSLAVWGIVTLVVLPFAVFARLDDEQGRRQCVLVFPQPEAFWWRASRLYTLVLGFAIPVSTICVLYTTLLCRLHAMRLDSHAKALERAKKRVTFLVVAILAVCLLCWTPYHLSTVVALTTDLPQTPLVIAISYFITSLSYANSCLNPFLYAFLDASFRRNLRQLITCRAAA

Sequence of Glycogen synthase kinase-3 beta (P49841 whole entry): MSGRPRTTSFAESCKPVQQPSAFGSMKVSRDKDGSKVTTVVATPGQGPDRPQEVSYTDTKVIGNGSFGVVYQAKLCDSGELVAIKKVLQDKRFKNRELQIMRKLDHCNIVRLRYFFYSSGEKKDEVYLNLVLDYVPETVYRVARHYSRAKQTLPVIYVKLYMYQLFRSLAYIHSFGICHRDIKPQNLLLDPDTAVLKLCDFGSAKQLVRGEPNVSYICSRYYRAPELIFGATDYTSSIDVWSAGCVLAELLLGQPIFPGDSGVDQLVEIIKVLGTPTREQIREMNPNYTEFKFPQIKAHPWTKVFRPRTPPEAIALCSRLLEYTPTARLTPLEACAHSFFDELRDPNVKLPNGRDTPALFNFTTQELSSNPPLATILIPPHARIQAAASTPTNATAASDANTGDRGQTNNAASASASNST

Cc1cccc(OCC(=O)Nc2ccc3c(c2)C(=O)NC3=O)c1
AC50 [1]: 1.36 µM (active)
AC50 [2]: 8 µM (active)

O=C(Sc1cccc2cccnc12)c1ccccc1Br
IC50 [3]: > 32 µM (inactive)
IC50 [4]: > 66 µM (inactive)
EC50 (Beta-galactosidase [5]): > 31.5 µM (inactive)
EC50 (BJ [6]): > 150 µM (inconclusive)
EC50 (Mu-type opioid receptor): > 32 µM (inactive)
IC50 [7]: 10.5 µM (active)
EC50 [8]: > 120 µM (not active)
EC50 (Beta-galactosidase [9]): > 40 µM (inactive)
IC50 (Vero [10]): > 25 µM (active)
EC50 (H4): > 120 µM (not active)
EC50 (BJ [11]): 0.328 µM (active)
IC50 [12]: > 100 µM (inactive)
IC50 [13]: 6.65 µM (active)
CC50 (Vero [14]): 9.91 µM (active)
EC50 (BJ [15]): 36.8 µM (active)
EC50 [16]: > 32 µM (inactive)
IC50 [17]: 3.51 µM (active)
EC50 [18]: > 120 µM (not active)
IC50 [19]: > 66 µM (inactive)
EC50 [20]: 2.48 µM (active)
AC50 [21]: 0.383 µM (active)
EC50 [22]: 31.8 µM (active)
AC50 [23]: 13.3 µM (active)
EC50 (BJ [24]): 12.7 µM (active)
IC50 [25]: 0.514 µM (active)
IC50 [26]: 57.8 µM (inactive)
IC50 (Prothrombin): > 100 µM (inactive)
IC50 [27]: > 32 µM

O=C(Oc1ccc2c(=O)c(Oc3ccc4ccccc4c3)coc2c1)c1cncc(Br)c1
EC50 [28]: 22.2 µM (active)

CC(CN1CCOCC1)C(=O)O (centres undefined)
EC50 [29]: > 100 µM (inactive)
EC50 [30]: > 100 µM (inactive)

O=c1oc2ccccc2c2[nH]c(-c3ccccc3)nc12
Ki [31]: 1.26 µM (active)
Ki [32]: 6.31 µM (active)
Ki [33]: 2 µM (active)
Ki [34]: 1.58 µM (active)
Ki [35]: 5.01 µM (active)
Ki [36]: 1.58 µM (active)
Ki [37]: 1 µM (active)

O=C(O)c1cc2ncccn2n1
IC50 [38]: 1.73 µM (active)
IC50 [39]: 2.6 µM (active)

N#CC(c1ccc([N+](=O)[O-])cc1)c1c(Cl)cnn(Cc2cccc3ccccc23)c1=O (centres undefined)
IC50 [40]: 0.303 µM (active)
IC50 [41]: 0.303 µM (active)
